Reference: US10981932B2, “Macrocyclic indole derivatives” (Bayer Aktiengesellschaft, priority 2016, dated 2021)
Read-outs that look alike come from different tables or passages of the source.

Key:
SUDHL10 [1] = assay: Induction of caspase-3/7 activity (Caspase-Glo 3/7), SUDHL10; assay type: cell-based; conditions: caspase-3/7 induction, SUDHL10 cells, 3 h treatment, median
How it was run: (§1)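 Apoptosis induction measured as caspase-3/7 activity (Caspase-Glo 3/7) in DLBCL lines after 3 h treatment at 37 °C; EC50 derived relative to the reference compound's maximal induction, with C0 fixed at 1.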

SUDHL10 [2] = assay: Induction of cytotoxicity (CellTiter-Glo, 5 h), SUDHL10
MCL-1 = MCL-1 (Homo sapiens, UniProt Q07820); assay: Protein-protein interaction assay MCL-1/Noxa BH3 peptide (MCL-1 assay), TR-FRET; assay type: binding; conditions: MBP-MCL-1 / Noxa BH3-derived peptide, median
How it was run: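 Inhibition values were normalized between DMSO controls with all reagents and controls lacking MCL-1. The binding competition used 1 nM MBP-MCL-1 in pH 7 Tris buffer containing 50 mM KF and 100 mM NaCl, with a 10 min compound preincubation at 22 °C.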

A2780 = assay: Anti-proliferative effect (CellTiter-Glo, 72 h), A2780; assay type: cell-based; conditions: A2780 cells, median, read-out: IC50 antiproliferation assay A2780 [M] (median)
How it was run: (§2)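 Luminescence from CellTiter-Glo, read 10 min after reagent addition, reports viable cell content after 72 h of compound treatment at 37 °C. A reference plate read at day 0 gives the starting baseline.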

OPM2 = assay: Anti-proliferative effect (CellTiter-Glo, 72 h), OPM2; assay type: cell-based; conditions: OPM2 cells, median, read-out: IC50 antiproliferation assay OPM2 [M] (median)
How it was run: as §2

SUDHL5 [3] = assay: Anti-proliferative effect (CellTiter-Glo, 72 h), SUDHL5; assay type: cell-based; conditions: SUDHL5 cells, antiproliferation, 72 h incubation, median, read-out: Antiproli SUDHL5 [M] (median)
How it was run: as §2

SUDHL10 [4] = assay: Anti-proliferative effect (CellTiter-Glo, 72 h), SUDHL10; assay type: cell-based; conditions: SUDHL10 cells, antiproliferation, 72 h incubation, median, read-out: Antiproli SUDHL10 [M] (median)
How it was run: as §2

SUDHL5 [5] = assay: Induction of caspase-3/7 activity (Caspase-Glo 3/7), SUDHL5; assay type: cell-based; conditions: caspase-3/7 induction, SUDHL5 cells, 3 h treatment, median
How it was run: as §1

SUDHL5 [6] = assay: Induction of cytotoxicity (CellTiter-Glo, 5 h), SUDHL5
[7] = Homo sapiens, SU-DHL10, 5 h, read-out: Cytotox SUDHL10 [M] (median), SUDHL10 cells, cytotoxicity induction, CellTiter-Glo, 5 h incubation, median
[8] = Homo sapiens, SU-DHL-5, 5 h, read-out: Cytotox SUDHL5 [M] (median), SUDHL5 cells, cytotoxicity induction, CellTiter-Glo, 5 h incubation, median
[9] = read-out: Cytotox SUDHL5 [M] (median), SUDHL5 cells, cytotoxicity induction, CellTiter-Glo, 5 h incubation, median
[10] = read-out: Cytotox SUDHL10 [M] (median), SUDHL10 cells, cytotoxicity induction, CellTiter-Glo, 5 h incubation, median

MCL-1, sequence (Q07820 whole entry): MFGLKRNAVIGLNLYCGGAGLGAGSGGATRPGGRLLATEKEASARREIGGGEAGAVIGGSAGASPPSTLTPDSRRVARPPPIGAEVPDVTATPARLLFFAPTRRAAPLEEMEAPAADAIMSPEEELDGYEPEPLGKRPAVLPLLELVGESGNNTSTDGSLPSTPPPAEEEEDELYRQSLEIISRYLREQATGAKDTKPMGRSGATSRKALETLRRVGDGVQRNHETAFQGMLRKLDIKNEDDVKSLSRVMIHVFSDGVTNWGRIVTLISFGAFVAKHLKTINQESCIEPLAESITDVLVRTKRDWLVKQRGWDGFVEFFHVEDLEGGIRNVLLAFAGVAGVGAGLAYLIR

EC50 (SUDHL10 [1]; Homo sapiens, SU-DHL10, 3 h) | IC50 (MCL-1) | IC50 (A2780; Homo sapiens, A2780, 72 h) | IC50 (SUDHL5 [3]; Homo sapiens, SU-DHL-5, 72 h) | IC50 (SUDHL10 [4]; Homo sapiens, SU-DHL10, 72 h) | EC50 (SUDHL5 [5]; Homo sapiens, SU-DHL-5, 3 h) | IC50 (SUDHL5 [3]) | EC50 (SUDHL10 [1]) | IC50 (SUDHL10 [4]) | EC50 (SUDHL5 [5]) | IC50 (A2780) | SMILES | IC50 (SUDHL10 [2]; [7]) | IC50 (OPM2; Homo sapiens, OPM-2, 72 h) | IC50 (SUDHL5 [6]; [8]) | IC50 (SUDHL5 [6]; [9]) | IC50 (SUDHL10 [2]; [10]) | IC50 (OPM2)
7.79 µM | 0.00735 µM | > 3.3e-05 M | 3.92e-06 M | 1.02e-05 M | 2.83 µM |  |  |  |  |  | COCc1nn(C)c2c1-c1cccc3c(CCCOc4cccc5ccccc45)c(C(=O)O)n(c13)CCCN(C)C2 (single isomer, unassigned; enantiomer 1) [Example 1-103, 11-(methoxymethyl)-7,9-dimethyl-1-[3-(1-naphthyloxy)propyl]-4,5,6,7,8,9-hexahydropyrazolo[3′,4′:7,8][1,5]diazecino[9,10,1-hi]indole-2-carboxylic Acid (Enantiomer 1)] | 1.27e-05 M | 1.58e-05 M | 3.97e-06 M |  |  | 
> 33 µM | 0.113 µM |  | 2.77e-05 M | 1.42e-05 M | > 33 µM |  |  |  |  |  | CN1CCCn2c(C(=O)O)c(CCCOc3cccc4ccccc34)c3cccc(c32)-c2c(COc3ccccc3)nn(C)c2C1 (single isomer, unassigned) [Example 1-82, 7,9-dimethyl-1-[3-(naphthalen-1-yloxy)propyl]-11-(phenoxymethyl)-4,5,6,7,8,9-hexahydropyrazolo[3′,4′:7,8][1,5]diazecino[9,10,1-hi]indole-2-carboxylic Acid] | > 3.3e-05 M | > 3.3e-05 M | > 3.3e-05 M |  |  | 
32.9 µM | 0.0479 µM |  |  | 1.24e-05 M | > 33 µM | 2.13e-05 M |  |  |  |  | CN1CCCn2c(C(=O)O)c(CCCOc3cccc4ccccc34)c3cccc(c32)-c2c(COc3ccc(-n4ccccc4=O)cc3)nn(C)c2C1 (single isomer, unassigned; enantiomer 1) [Example 1-115, 7,9-Dimethyl-1-[3-(1-naphthyloxy)propyl]-1-{[4-(2-oxopyridin-1(2H)-yl)phenoxy]methyl}-4,5,6,7,8,9-hexahydropyrazolo[3′,4′:7,8][1,5]diazecino[9,10,1-hi]indole-2-carboxylic Acid (Enantiomer 1)] | > 3.3e-05 M | > 3.3e-05 M |  | > 3.3e-05 M |  | 
 | 0.905 µM |  |  |  |  | 1.79e-05 M | > 33 µM | 1.08e-05 M | > 33 µM |  | Cn1nc(COc2ccccc2)c2c1COCC=CCn1c(C(=O)O)c(CCCOc3cccc4ccccc34)c3cccc-2c31 (single isomer, unassigned) [Example 1-78, (E/Z)-1-methyl-7-[3-(naphthalen-1-yloxy)propyl]-3-(phenoxymethyl)-1,10,13,15-tetrahydropyrazolo[4′,3′:9,10][1,6]oxazacycloundecino[8,7,6-hi]indole-8-carboxylic Acid] |  |  |  | > 3.3e-05 M | > 3.3e-05 M | 3.06e-05 M
> 33 µM | 0.0994 µM |  | > 3.3e-05 M | 2.78e-05 M | > 33 µM |  |  |  |  |  | CN1CCCn2c(C(=O)O)c(CCCOc3cccc4ccccc34)c3cccc(c32)-c2c(COc3ccccc3)nn(C)c2C1 (racemic) [Example 1-81, (rac)-7,9-dimethyl-1-[3-(naphthalen-1-yloxy)propyl]-1-(phenoxymethyl)-4,5,6,7,8,9-hexahydropyrazolo[3′,4′:7,8][1,5]diazecino[9,10,1-hi]indole-2-carboxylic Acid] | > 3.3e-05 M | > 3.3e-05 M | > 3.3e-05 M |  |  | 
 | 0.24 µM |  |  |  |  | 2.06e-05 M | > 33 µM | 1.12e-05 M | > 33 µM |  | CN1CCCn2c(C(=O)O)c(CCCOc3cccc4ccccc34)c3cccc(c32)-c2c(COc3ccccc3)nn(C)c2C1 (single isomer, unassigned) [Example 1-83, 7,9-dimethyl-1-[3-(naphthalen-1-yloxy)propyl]-11-(phenoxymethyl)-4,5,6,7,8,9-hexahydropyrazolo[3′,4′:7,8][1,5]diazecino[9,10,1-hi]indole-2-carboxylic Acid] |  |  |  | > 3.3e-05 M | > 3.3e-05 M | > 3.3e-05 M

Continued, compound first:

SMILES | EC50 (SUDHL10 [1]; Homo sapiens, SU-DHL10, 3 h) | IC50 (MCL-1) | IC50 (A2780; Homo sapiens, A2780, 72 h) | IC50 (SUDHL5 [3]; Homo sapiens, SU-DHL-5, 72 h) | IC50 (SUDHL10 [4]; Homo sapiens, SU-DHL10, 72 h) | EC50 (SUDHL5 [5]; Homo sapiens, SU-DHL-5, 3 h) | IC50 (SUDHL5 [3]) | EC50 (SUDHL10 [1]) | IC50 (SUDHL10 [4]) | EC50 (SUDHL5 [5]) | IC50 (A2780) | IC50 (SUDHL10 [2]; [7]) | IC50 (OPM2; Homo sapiens, OPM-2, 72 h) | IC50 (SUDHL5 [6]; [8]) | IC50 (SUDHL5 [6]; [9]) | IC50 (SUDHL10 [2]; [10]) | IC50 (OPM2)
CC(C)OCc1nn(C)c2c1-c1cccc3c(CCCOc4cccc5c4CCCC5)c(C(=O)O)n(c13)CCCCOC2 (racemic) [Example 1-69, (rac)-1-methyl-3-[(propan-2-yloxy)methyl]-7-[3-(5,6,7,8-tetrahydronaphthalen-1-yloxy)propyl]-1,10,11,12,13,15-hexahydropyrazolo[4′,3′:9,10][1,6]oxazacycloundecino[8,7,6-hi]indole-8-carboxylic Acid] | > 33 µM | 0.0118 µM | > 3.3e-05 M | > 3.3e-05 M | > 3.3e-05 M | > 33 µM |  |  |  |  |  | > 3.3e-05 M | > 3.3e-05 M | 2.71e-05 M |  |  | 
CN(C)S(=O)(=O)N1CCN(c2ccc(OCc3nn(C)c4c3-c3cccc5c(CCCOc6cccc7ccccc67)c(C(=O)O)n(c35)CCCCOC4)cc2)CC1 (racemic) [Example 1-18, (rac)-3-({4-[4-(dimethylsulfamoyl)piperazin-1-yl]phenoxy}methyl)-1-methyl-7-[3-(naphthalen-1-yloxy)propyl]-1,10,11,12,13,15-hexahydropyrazolo[4′,3′:9,10][1,6]oxazacycloundecino[8,7,6-hi]indole-8-carboxylic Acid] | 1.94 µM |  | 8.79e-06 M | 9.33e-07 M | 1.33e-06 M | 1.22 µM |  |  |  |  |  | 2.29e-06 M | 1.57e-06 M | 1.75e-06 M |  |  | 
Cc1nn(C)c2c1-c1cccc3c(CCCOc4cccc5ccccc45)c(C(=O)O)n(c13)CCCCN2Cc1ccccc1 [Example 002, (rac)-8-benzyl-9,11-dimethyl-1-[3-(1-naphthyloxy)propyl]-4,5,6,7,8,9-hexahydropyrazolo[4′,3′:4,5][1,6]diazecino[3,2,1-hi]indole-2-carboxylic Acid] | 22.4 µM | 0.353 µM |  | 1.42e-05 M | 6.26e-06 M | > 33 µM |  |  |  |  |  | 3.18e-05 M | > 3.3e-05 M | 2.12e-05 M |  |  | 
Cc1cc(OCCCc2c(C(=O)O)n3c4c(cccc24)-c2c(COc4ccccc4)nn(C)c2CN(C)CCC3)cc(C)c1Cl (racemic) [Example 1-84, (rac)-1-[3-(4-chloro-3,5-dimethylphenoxy)propyl]-7,9-dimethyl-11-(phenoxymethyl)-4,5,6,7,8,9-hexahydropyrazolo[3′,4′:7,8][1,5]diazecino[9,10,1-hi]indole-2-carboxylic Acid] | > 33 µM | 0.11 µM |  | 1.18e-05 M | 8.37e-06 M | > 33 µM |  |  |  |  |  | > 3.3e-05 M | > 3.3e-05 M | > 3.3e-05 M |  |  | 
CN1CCCn2c(C(=O)O)c(CCCOc3cccc4ccccc34)c3cccc(c32)-c2c(CN3CCOCC3)nn(C)c2C1 (single isomer, unassigned; enantiomer 2) [Example 1-44, (−)-7,9-dimethyl-11-(morpholin-4-ylmethyl)-1-[3-(naphthalen-1-yloxy)propyl]-4,5,6,7,8,9-hexahydropyrazolo[3′,4′:7,8][1,5]diazecino[9,10,1-hi]indole-2-carboxylic Acid (Enantiomer 2)] |  | 0.0177 µM |  |  |  |  | 6.96e-06 M | 9.76 µM | 7.73e-06 M | 12.4 µM | 1.95e-05 M |  |  |  | 1.26e-05 M |  | 1.13e-05 M
Cc1nn(C)c2c1-c1cccc3c(CCCOc4cccc5c4CCCC5)c(C(=O)O)n(c13)CCCCOC2 (racemic) [Example 006, (rac)-1,3-dimethyl-7-[3-(5,6,7,8-tetrahydronaphthalen-1-yloxy)propyl]-1,10,11,12,13,15-hexahydropyrazolo[4′,3′:9,10][1,6]oxazacycloundecino[8,7,6-hi]indole-8-carboxylic Acid] |  | 0.00831 µM | > 3.3e-05 M | 3.22e-06 M | 4.99e-06 M | 6.95 µM |  |  |  |  | 2.49e-05 M | 1.99e-05 M | 1.9e-05 M | 7.28e-06 M |  | > 3.3e-05 M | > 3.3e-05 M
